From the NIST ThermoML archive (doi:10.1016/j.jct.2007.04.009)
Numbers after ± are expanded uncertainties.

Assay: cn = amount concentration of the nth substance listed, in mol/dm3
Conditions: 101 kPa, Liquid; for speed of sound: Sing-around technique in a fixed-path interferometer; for mass density: Vibrating tube method

Cl [hydrogen chloride] + O showed a speed of sound (283.15 K, c1 = 0.001) of 1447.9 ± 0.99 m/s, a speed of sound (283.15 K, c1 = 0.01) of 1448.2 ± 0.99 m/s and a mass density (283.15 K, c1 = 0.001) of 999.726 ± 0.047 kg/m3. For the same compound, the mass density (283.15 K, c1 = 0.01) was 999.891 ± 0.047 kg/m3, the speed of sound (293.15 K, c1 = 0.001) was 1482.6 ± 1 m/s and the speed of sound (293.15 K, c1 = 0.01) was 1482.7 ± 1 m/s. It also gave a mass density (293.15 K, c1 = 0.001) of 998.23 ± 0.058 kg/m3, a mass density (293.15 K, c1 = 0.01) of 998.393 ± 0.044 kg/m3 and a speed of sound (298.15 K, c1 = 0.001) of 1496.8 ± 0.99 m/s. It also gave a speed of sound (298.15 K, c1 = 0.01) of 1496.9 ± 0.99 m/s, a mass density (298.15 K, c1 = 0.001) of 997.067 ± 0.053 kg/m3 and a mass density (298.15 K, c1 = 0.01) of 997.231 ± 0.046 kg/m3. The speed of sound (303.15 K, c1 = 0.001) was 1509.3 ± 0.99 m/s, the speed of sound (303.15 K, c1 = 0.01) was 1509.3 ± 0.99 m/s and the mass density (303.15 K, c1 = 0.001) was 995.67 ± 0.054 kg/m3. The mass density (303.15 K, c1 = 0.01) was 995.834 ± 0.049 kg/m3, the speed of sound (308.15 K, c1 = 0.001) was 1520 ± 0.99 m/s and the speed of sound (308.15 K, c1 = 0.01) was 1520 ± 0.99 m/s. For the same compound, the mass density (308.15 K, c1 = 0.001) was 994.057 ± 0.06 kg/m3, the mass density (308.15 K, c1 = 0.01) was 994.318 ± 0.05 kg/m3 and the speed of sound (313.15 K, c1 = 0.001) was 1529.1 ± 0.99 m/s. For the same compound, the speed of sound (313.15 K, c1 = 0.01) was 1529.1 ± 0.99 m/s, the mass density (313.15 K, c1 = 0.001) was 992.244 ± 0.052 kg/m3 and the mass density (313.15 K, c1 = 0.01) was 992.405 ± 0.053 kg/m3.
